Data as given in ChEMBL document CHEMBL5154688, “Design, Synthesis, and Characterization of I-BET567, a Pan-Bromodomain and Extra Terminal (BET) Bromodomain Oral Candidate” (J Med Chem, 2022).

How the values were obtained:
[1] = Artificial membrane permeability of the compound; assay type: ADME; conditions: PAMPA; read-out: permeability
C-C motif chemokine 2 = C-C motif chemokine 2 (Homo sapiens, UniProt P13500); assay: Inhibition of MCP-1 in LPS-stimulated human whole blood incubate for 24 hrs by immuno assay; assay type: tissue-based
Chain of C-C motif chemokine 2 (P13500 whole entry): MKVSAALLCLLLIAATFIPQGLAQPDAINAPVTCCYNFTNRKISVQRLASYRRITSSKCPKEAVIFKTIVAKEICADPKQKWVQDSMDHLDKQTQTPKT

Cytochrome P450 3A4 = Cytochrome P450 3A4 (Homo sapiens, UniProt P08684); assay: Inhibition of CYP3A4 (unknown origin); assay type: ADME
Chain of Cytochrome P450 3A4 (P08684 whole entry): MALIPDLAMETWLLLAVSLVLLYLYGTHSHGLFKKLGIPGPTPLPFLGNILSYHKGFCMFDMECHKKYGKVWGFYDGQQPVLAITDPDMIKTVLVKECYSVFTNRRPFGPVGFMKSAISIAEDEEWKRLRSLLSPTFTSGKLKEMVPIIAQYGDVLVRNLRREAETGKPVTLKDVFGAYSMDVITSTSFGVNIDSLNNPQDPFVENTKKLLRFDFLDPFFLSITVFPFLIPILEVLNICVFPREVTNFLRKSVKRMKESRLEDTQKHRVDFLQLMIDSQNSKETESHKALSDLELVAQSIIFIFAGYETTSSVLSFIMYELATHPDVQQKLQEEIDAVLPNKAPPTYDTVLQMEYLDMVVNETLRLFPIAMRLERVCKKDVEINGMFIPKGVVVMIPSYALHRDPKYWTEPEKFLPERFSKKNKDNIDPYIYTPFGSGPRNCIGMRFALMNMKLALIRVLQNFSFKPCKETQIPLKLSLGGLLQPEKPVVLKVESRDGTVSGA

[2] = Intrinsic clearance in dog hepatocytes incubated upto 45 mins by LC-MS/MS analysis; assay type: ADME, cell-based, Canis lupus familiaris, Hepatocyte; conditions: 0.75 h
[3] = Intrinsic clearance in human hepatocytes measured after 120 mins by LC-MS/MS analysis; assay type: ADME, cell-based, Hepatocyte; conditions: 2 h
[4] = Unbound clearance in Wistar Han rat blood at 3 mg/kg, po or 1.3 mg/kg, iv measured upto 24 hrs by LC-MS/MS analysis; assay type: ADME, organism-based; conditions: in vivo
[5] = Unbound clearance in Beagle dog blood at 3 mg/kg, po or 1.0 mg/kg, iv by LC-MS/MS analysis; assay type: ADME, organism-based, Canis lupus familiaris; conditions: in vivo
[6] = Renal clearance in Wistar Han rat at 3 mg/kg, po or 1.3 mg/kg, iv upto 24 hrs by LC-MS/MS analysis; assay type: ADME, organism-based; conditions: in vivo
[7] = Renal clearance in Beagle dog at 3 mg/kg, po or 1.0 mg/kg, iv by LC-MS/MS analysis; assay type: ADME, organism-based, Canis lupus familiaris; conditions: in vivo
[8] = Unbound volume of distribution at steady state in Wistar Han rat blood at 3 mg/kg, po or 1.3 mg/kg, iv measured upto 24 hrs by LC-MS/MS analysis; assay type: ADME, organism-based; conditions: in vivo
[9] = Terminal half life in Wistar Han rat blood at 3 mg/kg, po or 1.3 mg/kg, iv measured upto 24 hrs by LC-MS/MS analysis; assay type: ADME, organism-based; conditions: read-out: beta t1/2 (converted)
[10] = Unbound fraction in Wistar Han rat blood at 3 mg/kg, po or 1.3 mg/kg, iv measured upto 24 hrs by LC-MS/MS analysis; assay type: ADME, organism-based
[11] = biological target: Bromodomain-containing protein 4 (Homo sapiens, UniProt O60885); assay: Binding affinity to BRD4 BD1 (unknown origin) assessed as dissociation constant
[12] = biological target: T1, Bromodomain-containing protein 2 (Homo sapiens, UniProt P25440); assay: Binding affinity to BRD2 BD1 (unknown origin) assessed as dissociation constant
T1 sequence (P25440 whole entry): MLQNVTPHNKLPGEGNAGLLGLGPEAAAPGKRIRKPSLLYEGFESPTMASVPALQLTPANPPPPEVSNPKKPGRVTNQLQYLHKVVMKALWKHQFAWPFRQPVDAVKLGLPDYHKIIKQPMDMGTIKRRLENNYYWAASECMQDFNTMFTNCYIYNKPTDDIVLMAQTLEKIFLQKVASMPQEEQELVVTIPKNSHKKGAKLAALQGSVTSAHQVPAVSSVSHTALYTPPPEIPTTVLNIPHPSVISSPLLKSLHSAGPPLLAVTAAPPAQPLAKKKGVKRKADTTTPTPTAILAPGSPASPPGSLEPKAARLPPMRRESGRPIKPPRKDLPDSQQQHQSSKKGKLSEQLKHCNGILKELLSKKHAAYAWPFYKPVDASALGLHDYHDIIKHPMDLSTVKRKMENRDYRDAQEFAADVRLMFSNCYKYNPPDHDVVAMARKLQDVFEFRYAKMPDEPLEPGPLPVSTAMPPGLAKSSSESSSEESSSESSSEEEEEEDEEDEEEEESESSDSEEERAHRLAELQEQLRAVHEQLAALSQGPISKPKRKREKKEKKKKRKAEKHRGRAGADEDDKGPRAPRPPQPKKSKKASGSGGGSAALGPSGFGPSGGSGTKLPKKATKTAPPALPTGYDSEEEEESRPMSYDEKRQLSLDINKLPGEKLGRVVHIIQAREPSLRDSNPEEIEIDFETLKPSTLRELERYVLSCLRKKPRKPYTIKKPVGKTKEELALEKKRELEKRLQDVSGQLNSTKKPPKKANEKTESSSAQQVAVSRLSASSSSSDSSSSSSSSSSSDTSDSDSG

[13] = biological target: T1, Bromodomain-containing protein 2; assay: Binding affinity to BRD2 BD2 (unknown origin) assessed as dissociation constant
[14] = biological target: T2, Bromodomain-containing protein 3 (Homo sapiens, UniProt Q15059); assay: Binding affinity to BRD3 BD1 (unknown origin) assessed as dissociation constant
T2 sequence (Q15059 whole entry): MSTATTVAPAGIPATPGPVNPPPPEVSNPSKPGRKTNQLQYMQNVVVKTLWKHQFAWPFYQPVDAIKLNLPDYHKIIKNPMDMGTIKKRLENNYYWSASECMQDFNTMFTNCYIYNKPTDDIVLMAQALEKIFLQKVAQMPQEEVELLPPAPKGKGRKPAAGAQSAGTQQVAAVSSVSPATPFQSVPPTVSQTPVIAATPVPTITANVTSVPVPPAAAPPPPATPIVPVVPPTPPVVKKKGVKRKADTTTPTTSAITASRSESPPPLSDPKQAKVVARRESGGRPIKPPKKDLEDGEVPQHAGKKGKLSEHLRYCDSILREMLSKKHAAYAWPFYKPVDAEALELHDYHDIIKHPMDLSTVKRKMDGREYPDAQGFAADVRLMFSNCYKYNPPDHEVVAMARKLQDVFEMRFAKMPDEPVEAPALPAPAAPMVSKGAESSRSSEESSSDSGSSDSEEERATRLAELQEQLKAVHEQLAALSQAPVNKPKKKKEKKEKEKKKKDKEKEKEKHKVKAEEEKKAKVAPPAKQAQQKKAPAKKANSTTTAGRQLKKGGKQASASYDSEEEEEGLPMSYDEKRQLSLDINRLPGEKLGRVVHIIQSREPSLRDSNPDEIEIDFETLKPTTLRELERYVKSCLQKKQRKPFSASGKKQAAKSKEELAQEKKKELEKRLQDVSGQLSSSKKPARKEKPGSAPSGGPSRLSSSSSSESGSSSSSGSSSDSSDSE

[15] = biological target: T2, Bromodomain-containing protein 3; assay: Binding affinity to BRD3 BD2 (unknown origin) assessed as dissociation constant
[16] = biological target: T3, Bromodomain testis-specific protein (Homo sapiens, UniProt Q58F21); assay: Binding affinity to BRDT BD1 (unknown origin) assessed as dissociation constant
[17] = biological target: T3, Bromodomain testis-specific protein; assay: Binding affinity to BRDT BD2 (unknown origin) assessed as dissociation constant
[18] = Cmax in KLH-TNP-induced T-cell dependent immunization CD-1 mouse model at 30 mg/kg, po administered every third day for 14 days; assay type: ADME, organism-based; parameters: time 14 day, dose 30 mg/kg, route po; conditions: in vivo
[19] = AUC(0 to 72 hrs) in KLH-TNP-induced T-cell dependent immunization CD-1 mouse model at 30 mg/kg, po administered every other day for 14 days; assay type: ADME, organism-based; parameters: dose 30 mg/kg, time 14 day, route po; conditions: in vivo
[20] = Unbound AUC(0 to 24 hrs) in SCID mouse xenografted with human NMC 11060 cells at 3 to 30 mg/kg, po for 20 days; assay type: ADME, organism-based; conditions: in vivo, 480 h, dose 3-30 mg/kg, time 20 day
[21] = Toxicity in KLH-TNP-induced T-cell dependent immunization CD-1 mouse model assessed as effect on body weight at 30 mg/kg, po administered daily for 14 days; assay type: organism-based; conditions: in vivo, 336 h, time 14 day
[22] = Toxicity in SCID mouse xenografted with human NMC 11060 cells assessed as loss of body weight at 30 mg/kg, po for 20 days; assay type: organism-based; conditions: in vivo, 480 h, time 20 day
[23] = Antineoplastic activity against human NMC 11060 cells xenografted in SCID mouse assessed as reduction in tumor volume at 10 mg/kg, po for 20 days measured at 3 days of post randomization relative to control; assay type: functional; conditions: NMC 11060 cell, 480 h, time 20 day
[24] = Antineoplastic activity against human NMC 11060 cells xenografted in SCID mouse assessed as reduction in tumor volume at 10 mg/kg, po for 20 days measured at 10 days of post randomization relative to control; assay type: functional; conditions: NMC 11060 cell, 480 h, time 20 day
[25] = Antineoplastic activity against human NMC 11060 cells xenografted in SCID mouse assessed as reduction in tumor volume at 10 mg/kg, po for 20 days measured at 13 days of post randomization relative to control; assay type: functional; conditions: NMC 11060 cell, 480 h, time 20 day
[26] = Antineoplastic activity against human NMC 11060 cells xenografted in SCID mouse assessed as reduction in tumor volume at 10 mg/kg, po for 20 days measured at 15 days of post randomization relative to control; assay type: functional; conditions: NMC 11060 cell, 480 h, time 20 day
[27] = Antineoplastic activity against human NMC 11060 cells xenografted in SCID mouse assessed as reduction in tumor volume at 10 mg/kg, po for 20 days measured at 20 days of post randomization relative to control; assay type: functional; conditions: NMC 11060 cell, 480 h, time 20 day
[28] = Antineoplastic activity against human NMC 11060 cells xenografted in SCID mouse assessed as reduction in tumor volume at 30 mg/kg, po for 20 days measured at 6 days of post randomization relative to control; assay type: functional; conditions: NMC 11060 cell, 480 h, time 20 day
[29] = Antineoplastic activity against human NMC 11060 cells xenografted in SCID mouse assessed as reduction in tumor volume at 30 mg/kg, po for 20 days measured at 10 days of post randomization relative to control; assay type: functional; conditions: NMC 11060 cell, 480 h, time 20 day
[30] = Antineoplastic activity against human NMC 11060 cells xenografted in SCID mouse assessed as reduction in tumor volume at 30 mg/kg, po for 20 days measured at 15 days of post randomization relative to control; assay type: functional; conditions: NMC 11060 cell, 480 h, time 20 day

For CC(=O)N1c2ccc(C(N)=O)cc2[C@H](Nc2ncc(Cl)cn2)C[C@@H]1C, the Papp [1] was 6.8 ×10⁻⁶ cm/s, the IC50 (C-C motif chemokine 2) was 200 nM and the IC50 (Cytochrome P450 3A4) was greater than 39800 nM. It also gave a CLH [2] of less than 1.26 mL/min/g, a CLH [3] of less than 0.87 mL/min/g and a CL free [4] of 109 mL/min/kg. It also gave a CL free [5] of 20 mL/min/kg, a CL renal at 24 h [6] of 7 mL/min/kg and a CL renal [7] of 6.9 mL/min/kg. For the same molecule, the Vduss [8] was 10.4 L/kg, the half-life [9] was 1.6 h and the fraction unbound at 24 h [10] was 0.23. It also gave a Kd [11] of 25.1 nM, a Kd [12] of 39.8 nM and a Kd [13] of 7.94 nM. For the same molecule, the Kd [14] was 25.1 nM, the Kd [15] was 6.31 nM and the Kd [16] was 25.1 nM. The Kd [17] was 25.1 nM, the Cmax [18] was 8.5 µM and the AUC at 336 h [19] was 69 µM·h. For the same molecule, the fAUC [20] was 10 µM·h, the Activity [21] was “Non-Toxic” and the Activity [22] was 19.6%. For the same molecule, the inhibition in vivo at 10 mg/kg [23] was 45%, the inhibition in vivo at 10 mg/kg [24] was 69% and the inhibition in vivo at 10 mg/kg [25] was 56%. The inhibition in vivo at 10 mg/kg [26] was 65%, the inhibition in vivo at 10 mg/kg [27] was 51% and the inhibition in vivo at 30 mg/kg [28] was 70%. It also gave an inhibition in vivo at 30 mg/kg [29] of 83% and an inhibition in vivo at 30 mg/kg [30] of 92%.
